Results taken from patent US11053204B2, “Pyrimidinyloxy benzene derivatives as herbicides” (FMC Corporation, priority 2015, dated 2021).

Columns and labels:
Assay type in all cases: in vivo
kochia (Kochia scoparia) = experiment: Test C preemergence, plant response rating
[1] = test system: pigweed, palmer (palmer pigweed, Amaranthus palmeri); experiment: Test C preemergence, plant response rating
[2] = test system: oat, wild (wild oat Avena fatua); experiment: Test C postemergence, plant response rating; conditions: for Oat, Wild plant response rating: scale 0 to 100 (0 no effect, 100 complete control)
In short: (§1)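 Preemergence: seeds sown in loam–sand blend or silt loam and sprayed with test chemicals in a non-phytotoxic surfactant-containing solvent. Postemergence: potted plants at 2–18 cm (1–4-leaf stage) sprayed with the same formulation. After 13–15 d in greenhouse, visual rating versus controls on 0 (no effect) to 100 (complete control) scale.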

[3] = test system: lambsquarters (Chenopodium album); experiment: Test C postemergence, plant response rating; conditions: for Lambsquarters plant response rating: scale 0 to 100 (0 no effect, 100 complete control)
In short: as §1

[4] = test system: ryegrass, Italian (Italian ryegrass, Lolium multiflorum); experiment: Test C postemergence, plant response rating; conditions: for Ryegrass, Italian plant response rating: scale 0 to 100 (0 no effect, 100 complete control)
In short: as §1

[5] = test system: ragweed (common ragweed, Ambrosia elatior); experiment: Test C postemergence, plant response rating; conditions: for Ragweed plant response rating: scale 0 to 100 (0 no effect, 100 complete control)
In short: as §1

[6] = test system: wheat (winter wheat, Triticum aestivum); experiment: Test C postemergence, plant response rating
In short: as §1

[7] = test system: velvetleaf (Abutilon theophrasti); experiment: Test C postemergence, plant response rating
In short: as §1

[8] = test system: chickweed (common chickweed, Stellaria media); experiment: Test C postemergence, plant response rating; conditions: for Chickweed plant response rating: scale 0 to 100 (0 no effect, 100 complete control)
In short: as §1

[9] = test system: morningglory (Ipomoea coccinea); experiment: Test C postemergence, plant response rating; conditions: for Morningglory plant response rating: scale 0 to 100 (0 no effect, 100 complete control)
In short: as §1

[10] = test system: blackgrass (Alopecurus myosuroides); experiment: Test C postemergence, plant response rating; conditions: for Plant response rating, Blackgrass: scale 0 to 100; for Blackgrass plant response rating: scale 0 to 100 (0 no effect, 100 complete control)
In short: as §1

[11] = test system: barnyardgrass (Echinochloa crus-galli); experiment: Test C postemergence, plant response rating; conditions: for Plant response rating, Barnyardgrass: scale 0 to 100; for Barnyardgrass plant response rating: scale 0 to 100 (0 no effect, 100 complete control)
In short: as §1

[12] = test system: nutsedge, yellow (yellow nutsedge, Cyperus esculentus); experiment: Test C postemergence, plant response rating; conditions: for Nutsedge, Yellow plant response rating: scale 0 to 100 (0 no effect, 100 complete control)
In short: as §1

[13] = test system: galium (catchweed bedstraw, Galium aparine); experiment: Test C preemergence, plant response rating
[14] = test system: johnsongrass (Sorghum halepense); experiment: Test C preemergence, plant response rating
[15] = test system: windgrass (Apera spica-venti); experiment: Test C preemergence, plant response rating
[16] = test system: surinam grass (Brachiaria decumbens); experiment: Test C preemergence, plant response rating
[17] = test system: oat, wild (wild oat Avena fatua); experiment: Test C preemergence, plant response rating
[18] = test system: wild poinsettia (Euphorbia heterophylla); experiment: Test C preemergence, plant response rating
[19] = 125 g ai/ha, scale 0 to 100 (0 no effect, 100 complete control)

CCCCC(=O)c1c(Oc2ncc(Cl)cn2)cccc1C(F)(F)F [Compound 130]
Plant response rating, Kochia (kochia (Kochia scoparia); 31 g ai/ha, scale 0 to 100): 65
Plant response rating, Kochia (kochia (Kochia scoparia); 62 g ai/ha, scale 0 to 100): 65
Plant response rating, Kochia (kochia (Kochia scoparia); 125 g ai/ha, scale of 0 to 100): 98
Plant response rating, Pigweed, Palmer ([1]; 31 g ai/ha, scale 0 to 100): 75
Plant response rating, Pigweed, Palmer ([1]; 62 g ai/ha, scale 0 to 100): 100
Plant response rating, Pigweed, Palmer ([1]; 125 g ai/ha, scale of 0 to 100): 85
Plant response rating, Oat, Wild ([2]; 16 g ai/ha, scale of 0 to 100): 5
Plant response rating, Oat, Wild ([2]; 31 g ai/ha, scale 0 to 100): 10
Oat, Wild plant response rating ([2]; 62 g ai/ha): 15
Oat, Wild plant response rating ([2]; 125 g ai/ha): 15
Plant response rating, Lambsquarters ([3]; 16 g ai/ha, scale of 0 to 100): 75
Plant response rating, Lambsquarters ([3]; 31 g ai/ha, scale 0 to 100): 90
Lambsquarters plant response rating ([3]; 62 g ai/ha): 85
Lambsquarters plant response rating ([3]; 125 g ai/ha): 95
Plant response rating, Ryegrass, Italian ([4]; 16 g ai/ha, scale of 0 to 100): 5
Plant response rating, Ryegrass, Italian ([4]; 31 g ai/ha, scale 0 to 100): 10
Ryegrass, Italian plant response rating ([4]; 62 g ai/ha): 10
Ryegrass, Italian plant response rating ([4]; 125 g ai/ha): 15
Plant response rating, Ragweed ([5]; 16 g ai/ha, scale of 0 to 100): 25
Plant response rating, Ragweed ([5]; 31 g ai/ha, scale 0 to 100): 45
Ragweed plant response rating ([5]; 62 g ai/ha): 55
Ragweed plant response rating ([5]; 125 g ai/ha): 50
Plant response rating, Wheat ([6]; 16 g ai/ha, scale of 0 to 100): 10
Plant response rating, Wheat ([6]; 31 g ai/ha, scale 0 to 100): 5
Wheat plant response rating [6, 19]: 30
Plant response rating, Velvetleaf ([7]; 16 g ai/ha, scale of 0 to 100): 25
Plant response rating, Velvetleaf ([7]; 31 g ai/ha, scale 0 to 100): 45
Velvetleaf plant response rating [7, 19]: 75
Plant response rating, Chickweed ([8]; 16 g ai/ha, scale of 0 to 100): 75
Plant response rating, Chickweed ([8]; 31 g ai/ha, scale 0 to 100): 75
Chickweed plant response rating ([8]; 62 g ai/ha): 80
Chickweed plant response rating ([8]; 125 g ai/ha): 90
Plant response rating, Morningglory ([9]; 16 g ai/ha, scale of 0 to 100): 10
Plant response rating, Morningglory ([9]; 31 g ai/ha, scale 0 to 100): 25
Morningglory plant response rating ([9]; 62 g ai/ha): 65
Morningglory plant response rating ([9]; 125 g ai/ha): 55
Plant response rating, Blackgrass ([10]; 16 g ai/ha): 5
Plant response rating, Blackgrass ([10]; 31 g ai/ha): 5
Blackgrass plant response rating ([10]; 62 g ai/ha): 20
Blackgrass plant response rating ([10]; 125 g ai/ha): 30
Plant response rating, Barnyardgrass ([11]; 16 g ai/ha): 5
Plant response rating, Barnyardgrass ([11]; 31 g ai/ha): 5
Barnyardgrass plant response rating ([11]; 62 g ai/ha): 10
Barnyardgrass plant response rating ([11]; 125 g ai/ha): 20
Plant response rating, Nutsedge, Yellow ([12]; 16 g ai/ha, scale of 0 to 100): 0
Plant response rating, Nutsedge, Yellow ([12]; 31 g ai/ha, scale 0 to 100): 0
Nutsedge, Yellow plant response rating ([12]; 62 g ai/ha): 5
Nutsedge, Yellow plant response rating ([12]; 125 g ai/ha): 5
Plant response rating, Galium ([13]; 31 g ai/ha, scale 0 to 100): 50
Plant response rating, Galium ([13]; 62 g ai/ha, scale 0 to 100): 90
Plant response rating, Galium ([13]; 125 g ai/ha, scale of 0 to 100): 90
Plant response rating, Johnsongrass ([14]; 31 g ai/ha, scale 0 to 100): 10
Plant response rating, Johnsongrass ([14]; 62 g ai/ha, scale 0 to 100): 70
Plant response rating, Johnsongrass ([14]; 125 g ai/ha, scale of 0 to 100): 85
Plant response rating, Windgrass ([15]; 31 g ai/ha, scale 0 to 100): 70
Plant response rating, Windgrass ([15]; 62 g ai/ha, scale 0 to 100): 100
Plant response rating, Windgrass ([15]; 125 g ai/ha, scale of 0 to 100): 100
Plant response rating, Surinam Grass ([16]; 31 g ai/ha, scale 0 to 100): 50
Plant response rating, Surinam Grass ([16]; 62 g ai/ha, scale 0 to 100): 65
Plant response rating, Surinam Grass ([16]; 125 g ai/ha, scale of 0 to 100): 80
Plant response rating, Oat, Wild ([17]; 31 g ai/ha, scale 0 to 100): 15
Plant response rating, Oat, Wild ([17]; 62 g ai/ha, scale 0 to 100): 35
Plant response rating, Oat, Wild ([17]; 125 g ai/ha, scale of 0 to 100): 60
Plant response rating, Poinsettia, Wild ([18]; 31 g ai/ha, scale 0 to 100): 0
Plant response rating, Poinsettia, Wild ([18]; 62 g ai/ha, scale 0 to 100): 10
Plant response rating, Poinsettia, Wild ([18]; 125 g ai/ha, scale of 0 to 100): 45
